Results on 1 compound are retold here after patent publication US8809550B2, “Androgen receptor antagonists and uses thereof” (priority 2009, dated 2014).

For orientation: inhibition means the drop in the measured response relative to a control, in per cent. Low readings indicate a response near the control, high ones a response far below the control. A word on the IC50: it is the concentration at which inhibition is half-maximal. The low end stands for higher potency, the high end for lower potency.

For assay [1], the system named is Prostate-specific Antigen (PSA) production in 22RV1 cells. As to the kind of experiment: PSA assay: inhibition of PSA production in 22RV1 cells (ELISA). The conditions noted are these: Homo sapiens, 72 h, R1881 1 ng/ml, three days. The class given is cell-based. As to the method: (§1) PSA Assay (Inhibition Test of the Compound of the Present Invention on Prostate-Specific Antigen (PSA) Production in Various Prostate Cancer Cells)
Androgen dependent LNCaP and 22RV1 cells were purchased from the American Type Culture Collection (ATCC, Manassas, Va.). These cells were grown in RPMI 1640 medium supplemented with 10% fetal bovine serum (FBS), 100 U/mL penicillin, 100 μg/mL streptomycin, and 0.25 μg/mL amphotericin B. The cells were maintained at 37° C. and 5% CO2. LNCaP cells between passage 20 and 35, and 22RV1 cells between passage 30 and 50 were used for experiments. LNCaP is a hormone sensitive cell line, while 22RV1 is a hormone refractory prostate cancer cell line, which derived from a primary prostate tumor. This cell line was isolated from a xenograft (CWR22R-2152) that was serially propagated in mice after castration-induced regression and relapse of the parental, androgen-dependent CWR xenograft. For the PSA assay, human prostate cancer cells LNCaP or 22RV1 were seeded in a 96-well plate at a concentration of 5000 cells/100 μl/well. On the following day, Methyltrienolone (R1881, AR agonist) (final concentration 1 ng/ml), test compounds or bicalutamide (Casodex®, AstraZeneca) (final concentration 0.005 to 20 μM) were added. Three days after the addition, the concentration of PSA in the supernatant of the culture solution was measured by ELISA. ELISAs for human PSA in culture medium were performed using the ultra-sensitive assay procedure and reagents in the Active™ PSA assay kit (Diagnostic Systems Laboratories Inc., Webster, Tex.). Culture medium and standards (200 μl/well) were incubated in antibody-coated plates for 2 h at room temperature on a Titer plate shaker at 500-600 rpm. Wells were then washed five times. The HRP conjugate was diluted 1:20 with assay buffer, and 100 μl was added to all wells. The plates were incubated for 30 min at room temperature on the shaker and washed as before, and 100 μl TMB (3,3′,5,5′-tetramethylbenzidine, 0.4 g/l) was added. The plates were incubated for 10 min on the shaker, and the reaction was terminated with 100 μl stop solution. The plates were read using a plate reader at 450 nm with a 650 nm reference filter. PSA levels were normalized for differences in growth of LNCaP or 22RV1 cells following various treatments as determined by the MTS assay. IC50 of PSA was calculated based on a seven point assay (concentrations of tested compound) and expressed as micromolar (uM). […] ND means not determined
Background: An ELISA detects its analyte on a solid surface through an enzyme-linked reagent.

For another assay, the system named is C57BL/6 mice. Kind of assay: C57BL/6 mouse hair growth model. The class given is in vivo. The source says: C57BL/6 Mouse Hair Growth Model
Six-to 8-wk-old male C57BL/6 mice in the telogen stage of the hair cycle, weighing 15-20 g, were purchased and housed in community cages under standard conditions. The growth phase of the hair cycle (anagen) was induced in the back skin of mice with all follicles in the resting phase of the hair cycle (telogen; as judged from their homogeneously pink skin color) by being shaved on the lower back using an electric shaver under mild anesthesia. Only mice in the telogen phase (pink skin) were used in the studies. Twenty microliters of test article at two concentrations in propylene glycol/ethanol (30:70, v/v) or the vehicle control was topically applied to the shaved lower back of the mice to cover an area of approximately 1 cm^2 (20 uL/cm^2). Five mice were used in each group. The mice were treated with the compound by topical application twice daily (BID) for 4 weeks. Local irritation was recorded daily before each application, and hair growth scores were recorded twice per week. The scoring system for mouse hair growth was 0 to 4: 0=no hair growth, pink skin color; 1=skin color in shaved area changes from pink to gray without visible hair growth, indicating the onset of anagen; 2=skin color in shaved area is black with tiny hairs; 3=short black hair in shaved area; and 4=hair in shaved area is almost close to surrounding area. […]

For assay [2], the system named is Prostate-specific Antigen (PSA) production in LNCaP cells. As to the kind of experiment: PSA assay: inhibition of PSA production in LNCaP cells (ELISA). The class given is cell-based. The note with it: Homo sapiens, 72 h, R1881 1 ng/ml, three days, seven point assay. How it is done:
as §1
Androgen dependent LNCaP and 22RV1 cells were purchased from the American Type Culture Collection (ATCC, Manassas, Va.). These cells were grown in RPMI 1640 medium supplemented with 10% fetal bovine serum (FBS), 100 U/mL penicillin, 100 μg/mL streptomycin, and 0.25 μg/mL amphotericin B. The cells were maintained at 37° C. and 5% CO2. LNCaP cells between passage 20 and 35, and 22RV1 cells between passage 30 and 50 were used for experiments. LNCaP is a hormone sensitive cell line, while 22RV1 is a hormone refractory prostate cancer cell line, which derived from a primary prostate tumor. This cell line was isolated from a xenograft (CWR22R-2152) that was serially propagated in mice after castration-induced regression and relapse of the parental, androgen-dependent CWR xenograft. For the PSA assay, human prostate cancer cells LNCaP or 22RV1 were seeded in a 96-well plate at a concentration of 5000 cells/100 μl/well. On the following day, Methyltrienolone (R1881, AR agonist) (final concentration 1 ng/ml), test compounds or bicalutamide (Casodex®, AstraZeneca) (final concentration 0.005 to 20 μM) were added. Three days after the addition, the concentration of PSA in the supernatant of the culture solution was measured by ELISA. ELISAs for human PSA in culture medium were performed using the ultra-sensitive assay procedure and reagents in the Active™ PSA assay kit (Diagnostic Systems Laboratories Inc., Webster, Tex.). Culture medium and standards (200 μl/well) were incubated in antibody-coated plates for 2 h at room temperature on a Titer plate shaker at 500-600 rpm. Wells were then washed five times. The HRP conjugate was diluted 1:20 with assay buffer, and 100 μl was added to all wells. The plates were incubated for 30 min at room temperature on the shaker and washed as before, and 100 μl TMB (3,3′,5,5′-tetramethylbenzidine, 0.4 g/l) was added. The plates were incubated for 10 min on the shaker, and the reaction was terminated with 100 μl stop solution. The plates were read using a plate reader at 450 nm with a 650 nm reference filter. PSA levels were normalized for differences in growth of LNCaP or 22RV1 cells following various treatments as determined by the MTS assay. IC50 of PSA was calculated based on a seven point assay (concentrations of tested compound) and expressed as micromolar (uM). Results on 22RV1 cells are shown as percent inhibition at 2 micromolar (uM). ND means not determined

For a further assay, the system named is LNCaP cells. Kind of assay: Cell viability assay, LNCaP cells. The class given is cell-based. The note with it: Homo sapiens, LNCaP, 48 h, read-out: Inhibition of cell viability, LNCaP % inhibition at 2.5 uM. As to the method:
(§2) LNCaP and 22RV1 cells were maintained in RPMI 1640 medium supplemented with 10% fetal bovine serum (FBS), 100 U/mL penicillin, 100 μg/mL streptomycin, and 0.25 μg/mL amphotericin B, splitting cells when they reached 80-90% confluence. In order to test compounds, 10,000 cells/well were plated in 96 cell culture plates using 100 ul/well plating medium, cultured overnight at 37° C. in a cell culture incubator. After carefully remove plating medium, 80 ul/well of pre-warmed assay medium was added, followed by adding 10 ul/well test compounds or bicalutamide (final concentration from 20 uM to 0.1 uM), incubated at 37° C. for 30 minutes, then adding 10 ul/well freshly prepared Methyltrienolone (R1881, AR agonist) (final concentration 1 ng/ml) to each well, incubate at 37° C. for 48-hour. At the end of incubation, 20 μl MTT (2.5 mg/ml in PBS) was added to each well, and the cells were further incubated for 2 h at 37 C to allow a complete reaction between the dye and the enzyme mitochondrial dehydrogenase in the viable cells. After removal of the residual dye and medium, 100 μl dimethylsulfoxide was added to each well, and the absorbance at 570 nm was measured with an microplate reader. The fold induction over background by 1 nM R1881 in the absence of test compounds is standardized as 100% and experimental result is expressed as percentage of inhibition by testing compounds at 2.5 micromolar (uM).

In a further assay the test system is 22RV1 cells. As to the kind of experiment: Cell viability assay, 22RV1 cells. The class given is cell-based, human. The note with it: Homo sapiens, 22Rv1, 48 h, read-out: Inhibition of cell viability, 22RV1 % inhibition at 2.5 uM. How it is done: as §2

As for `CNC(=O)c1ccc(N2C(=S)N(c3ccc(C#N)c(C(F)(F)F)c3F)C(=O)C2(C)C)cc1F` [Example 12, 4-[3-(4-Cyano-2-fluoro-3-trifluoromethyl-phenyl)-5,5-dimethyl-4-oxo-2-thioxo-imidazolidin-1-yl]-2-fluoro-N-methyl-benzamide], at 2 µM the inhibition in assay [1] was 71%. In addition, the hair growth stimulation entry with C57BL/6 mice (topical BID for 4 weeks, 0.2% and 1% in 30% propylene glycol and 70% ethanol, FIG. 1) is “stimulated hair growth in dose dependent patterns”. In addition, in the assay on C57BL/6 mice (topical, compared to reference androgen receptor antagonist RU-58841), the “in vivo activity for promoting hair growth compared to RU-58841” value is “better in vivo activity for promoting hair growth”. In assay [2], this compound gave an IC50 of 0.28 µM. Besides, the cytotoxicity at 2.5 µM with LNCaP cells turned out to be 86%; with 22RV1 cells, 61%.
